Here are results for 20 compounds from PubChem BioAssay AID248 (DTP/NCI, 2004).

For this experiment, the system named is L1210 leukemia ip in BDF1 mice, survival T/C. The experiment can be described thus: NCI In Vivo Anticancer Drug Screen. Data for tumor model L1210 Leukemia (intraperitoneal) in B6D2F1 (BDF1) mice. The note with it: endpoint: mean survival time, higher = longer survival. A digest of the protocol:
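Survival endpoint. Drug-treated group vs vehicle group, expressed as T divided by C. Tumor passaged by transplantation.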

[1] abbreviates: dose: 100.0 mg/kg/injection, schedule: Q01DX001 (ip), vehicle: saline.
The mark [2] stands for this setting: dose: 200.0 mg/kg/injection, schedule: Q01DX001 (ip), vehicle: saline.
The mark [3] stands for this setting: dose: 400.0 mg/kg/injection, schedule: Q01DX001 (ip), vehicle: saline.
[4] abbreviates: dose: 100.0 mg/kg/injection, schedule: Q04DX003 (ip), vehicle: saline with Tween-80.
The mark [5] stands for this setting: dose: 200.0 mg/kg/injection, schedule: Q04DX003 (ip), vehicle: saline with Tween-80.
[6] abbreviates: dose: 100.0 mg/kg/injection, schedule: Q01DX009 (ip), vehicle: Klucel (hydroxypropylcellulose) (HPC).
[7] abbreviates: dose: 200.0 mg/kg/injection, schedule: Q01DX009 (ip), vehicle: Klucel (hydroxypropylcellulose) (HPC).
Where [8] appears, read: dose: 400.0 mg/kg/injection, schedule: Q01DX009 (ip), vehicle: Klucel (hydroxypropylcellulose) (HPC).

Each structure is given as a SMILES string. Several values for one entry are separate records, joined by “and”; a condition that tells them apart may be missing. Equal entries are not always repeated. Toxic doses and inconclusive results are not listed.

Turning to `COc1ccccc1CN1CCCN(Cc2ccccc2OC)C1c1ccccc1O`, the T/C (dose: 50.0 mg/kg/injection, schedule: Q01DX001 (ip), vehicle: saline) was 101 % of control; the T/C under setting [1] is 103 % of control; the T/C under setting [2] is 101 % of control; the T/C under setting [3] is 97 % of control.

As for `CC(=O)OC/N=[N+](/C)[O-]`, the T/C by setting is: (dose: 2.0 mg/kg/injection, schedule: Q01DX Z (ip), vehicle: saline) 98 % of control; (dose: 4.0 mg/kg/injection, schedule: Q01DX Z (ip), vehicle: saline) 110 % of control; (dose: 6.0 mg/kg/injection, schedule: Q01DX Z (ip), vehicle: saline) 97 % of control; (dose: 8.0 mg/kg/injection, schedule: Q01DX Z (ip), vehicle: saline) 104 % of control; (dose: 12.5 mg/kg/injection, schedule: Q01DX Z (ip), vehicle: saline) 91 % of control.

In the case of `CC(C)(C)c1cc(/C=N/NC(=S)Nc2ccccc2)cc(C(C)(C)C)c1O`, the T/C by setting is: (dose: 100.0 mg/kg/injection, schedule: Q04DX002 (ip), vehicle: Klucel (hydroxypropylcellulose) (HPC)) 96 % of control; (dose: 200.0 mg/kg/injection, schedule: Q04DX002 (ip), vehicle: Klucel (hydroxypropylcellulose) (HPC)) 89 % of control; (dose: 400.0 mg/kg/injection, schedule: Q04DX002 (ip), vehicle: Klucel (hydroxypropylcellulose) (HPC)) 92 % of control.

For the compound `Clc1ccc2nc(CI)c(CI)nc2c1`, the T/C reads like this: (dose: 6.25 mg/kg/injection, schedule: Q01DX009 (ip), vehicle: acetone) 102 % of control; (dose: 12.5 mg/kg/injection, schedule: Q01DX009 (ip), vehicle: acetone) 102 % of control; (dose: 12.5 mg/kg/injection, schedule: Q04DX003 (ip), vehicle: acetone) 104 % of control; (dose: 25.0 mg/kg/injection, schedule: Q04DX003 (ip), vehicle: acetone) 96 % of control.

With `C1=CN2CCCN3C=CC=c4ccc(c2c43)=C1`, the T/C reads like this: (dose: 7.5 mg/kg/injection, schedule: Q01DX009 (ip), vehicle: saline) 100 % of control; (dose: 15.0 mg/kg/injection, schedule: Q01DX009 (ip), vehicle: saline) 98 % of control.

For the compound `C(=C(c1ccccc1)c1ccccc1)C1=NCCS1`, the T/C (dose: 50.0 mg/kg/injection, schedule: Q04DX002 (ip), vehicle: saline with Tween-80) is 108 % of control; the T/C (dose: 100.0 mg/kg/injection, schedule: Q03DX002 (ip), vehicle: saline with Tween-80) is 98 % of control; the T/C (dose: 100.0 mg/kg/injection, schedule: Q04DX002 (ip), vehicle: saline with Tween-80) is 101 % of control; the T/C (dose: 200.0 mg/kg/injection, schedule: Q04DX002 (ip), vehicle: saline with Tween-80) was 104 % of control; the T/C (dose: 400.0 mg/kg/injection, schedule: Q03DX002 (ip), vehicle: saline with Tween-80) was 117 % of control.

For the compound `CCN(CC)S(=O)(=O)c1ccc(Nc2nc(Cl)nc(Cl)n2)cc1`, the T/C is, setting by setting: (dose: 12.5 mg/kg/injection, schedule: Q01DX009 (ip), vehicle: Klucel (hydroxypropylcellulose) (HPC)) 113 % of control; (dose: 12.5 mg/kg/injection, schedule: Q04DX003 (ip), vehicle: Klucel (hydroxypropylcellulose) (HPC)) 102 % of control; (dose: 25.0 mg/kg/injection, schedule: Q01DX009 (ip), vehicle: Klucel (hydroxypropylcellulose) (HPC)) 97 % of control; (dose: 25.0 mg/kg/injection, schedule: Q04DX003 (ip), vehicle: Klucel (hydroxypropylcellulose) (HPC)) 100 % of control; (dose: 50.0 mg/kg/injection, schedule: Q01DX009 (ip), vehicle: Klucel (hydroxypropylcellulose) (HPC)) 113 % of control; (dose: 50.0 mg/kg/injection, schedule: Q04DX003 (ip), vehicle: Klucel (hydroxypropylcellulose) (HPC)) 95 % of control.

Consider `CN/N=C/c1ccc([N+](=O)[O-])o1`, for which the T/C by setting is: under setting [4], 97 % of control; under setting [5], 88 % of control.

As for `CN(C(=O)Nc1ccc(Cl)cc1[N+](=O)[O-])C1CCCCC1`, the T/C reads like this: under setting [6], 92 % of control; under setting [7], 94 % of control; under setting [8], 97 % of control.

`[Se]c1ccnc([Se])n1`: the T/C under setting [4] is 89 % of control and the T/C under setting [5] is 94 % of control.

On to `CN=C(N)c1ccc(N=C(N)c2ccc(N=C(N)c3ccc(NC(=O)Nc4cccc(NC(=O)Nc5ccc(C(N)=Nc6ccc(C(N)=Nc7ccc(C(N)=NC)cc7)cc6)cc5)c4)cc3)cc2)cc1`, for which the T/C was 109 % of control (dose: 0.25 mg/kg/injection, schedule: Q01DX015 (ip), vehicle: water); 113 % of control (dose: 0.5 mg/kg/injection, schedule: Q01DX015 (ip), vehicle: water); 121 % of control (dose: 1.0 mg/kg/injection, schedule: Q01DX015 (ip), vehicle: water); 124 % of control (dose: 2.0 mg/kg/injection, schedule: Q01DX015 (ip), vehicle: water); 177 % of control and 178 % of control and 187 % of control (dose: 37.5 mg/kg/injection, schedule: Q01DX001 (ip), vehicle: water); 265 % of control and 278 % of control and 310 % of control (dose: 75.0 mg/kg/injection, schedule: Q01DX001 (ip), vehicle: water).

Consider `CN(CCNC(=O)C1CCCCC1C(=O)O)c1ccccc1` (stereo unspecified), for which the T/C runs as follows: under setting [6], 98 % of control; under setting [7], 92 % of control; under setting [8], 96 % of control.

On to `CCCc1nc2c(=O)n(C3OC(CO)C(O)C3O)cnc2o1` (stereo unspecified), for which the T/C runs as follows: (dose: 100.0 mg/kg/injection, schedule: Q01DX005 (ip), vehicle: saline) 95 % of control; (dose: 200.0 mg/kg/injection, schedule: Q01DX005 (ip), vehicle: saline) 91 % of control.

Consider `O=C1CC(=O)C(Cl)=C1Cl`, for which the T/C (dose: 15.0 mg/kg/injection, schedule: Q01DX001 (ip), vehicle: carboxymethylcellulose (CMC)) is 93 % of control.

Consider `Nc1nc2nc(CC(=O)C(=O)O)c(=O)[nH]c2c(=O)[nH]1`, for which the T/C is, setting by setting: (dose: 3.12 mg/kg/injection, schedule: Q01DX009 (ip), vehicle: saline with Tween-80) 97 % of control; (dose: 6.25 mg/kg/injection, schedule: Q01DX009 (ip), vehicle: saline with Tween-80) 101 % of control; (dose: 12.5 mg/kg/injection, schedule: Q01DX009 (ip), vehicle: saline with Tween-80) 103 % of control; (dose: 12.5 mg/kg/injection, schedule: Q04DX003 (ip), vehicle: saline) 105 % of control; (dose: 25.0 mg/kg/injection, schedule: Q04DX003 (ip), vehicle: saline) 111 % of control; (dose: 50.0 mg/kg/injection, schedule: Q01DX009 (ip), vehicle: saline) 97 % of control. In addition, the T/C (dose: 50.0 mg/kg/injection, schedule: Q04DX003 (ip), vehicle: saline) was 104 % of control and the T/C (dose: 100.0 mg/kg/injection, schedule: Q04DX003 (ip), vehicle: saline) was 106 % of control.

For `CC1CC=CCC1/C=N/NC(N)=O` (stereo unspecified), the T/C runs as follows: (dose: 100.0 mg/kg/injection, schedule: Q01DX001 (ip), vehicle: Klucel (hydroxypropylcellulose) (HPC)) 107 % of control; (dose: 200.0 mg/kg/injection, schedule: Q01DX001 (ip), vehicle: Klucel (hydroxypropylcellulose) (HPC)) 104 % of control; (dose: 400.0 mg/kg/injection, schedule: Q01DX001 (ip), vehicle: Klucel (hydroxypropylcellulose) (HPC)) 98 % of control.

Regarding `COC(=O)c1[nH]ncc1N=NN(C)C`, the T/C is, setting by setting: (dose: 176.0 mg/kg/injection, schedule: Q01DX001 (ip), vehicle: carboxymethylcellulose (CMC)) 111 % of control; (dose: 264.0 mg/kg/injection, schedule: Q01DX001 (ip), vehicle: carboxymethylcellulose (CMC)) 120 % of control; (dose: 400.0 mg/kg/injection, schedule: Q01DX001 (ip), vehicle: carboxymethylcellulose (CMC)) 113 % of control.

For the compound `CCCCNC(C)[C@]1(O)Cc2c(O)c3c(c(O)c2[C@@H](OC2CC(N)C(O)C(C)O2)C1)C(=O)c1c(OC)cccc1C3=O` (stereo partly specified), the T/C was 104 % of control (dose: 1.56 mg/kg/injection, schedule: Q01DX009 (ip), vehicle: water); 119 % of control (dose: 3.13 mg/kg/injection, schedule: Q01DX009 (ip), vehicle: water); 117 % of control (dose: 6.25 mg/kg/injection, schedule: Q01DX009 (ip), vehicle: water).

For `Cc1ccc(NC(N)=S)cc1C`, the T/C runs as follows: (dose: 25.0 mg/kg/injection, schedule: Q01DX009 (ip), vehicle: saline with Tween-80) 105 % of control; (dose: 50.0 mg/kg/injection, schedule: Q01DX009 (ip), vehicle: saline with Tween-80) 90 % of control; (dose: 100.0 mg/kg/injection, schedule: Q01DX009 (ip), vehicle: saline with Tween-80) 86 % of control.

As to `COCCO`, the T/C under setting [1] is 105 % of control, the T/C under setting [2] was 103 % of control and the T/C under setting [3] was 105 % of control.
